Assay results published in publication PMC9415646, “Improving Aqueous Solubility and In Vitro Pharmacokinetic Properties of the 3-Nitroimidazo[1,2-a]pyridine Antileishmanial Pharmacophore” (Pharmaceuticals, 2022).

Key:
[1] = test system: L. donovani promastigotes; assay: Antileishmanial activity against L. donovani promastigotes (MTT assay); format: cell-based; settings: Leishmania donovani; promastigotes, 72 h, MTT; read-out: EC50 L. donovani Pro.
Experimental: The Leishmania species used in this study were L. donovani (MHOM/IN/00/DEVI) purchased from CNR Leishmania (Montpellier, France). Leishmania promastigote forms were grown in Schneider’s Drosophila medium (Life Technologies, Saint-Aubin, France) supplemented with 100 U/mL penicillin, 100 µg/mL streptomycin, 2 mM L-glutamine and 20% FCS (Life Technologies, Saint-Aubin, France) at 27 °C. The in vitro evaluation of the tested compound’s antileishmanial activity on promastigote forms was carried out by MTT assay according to the Mosmann protocol with some modifications. Briefly, promastigotes in log-phase were incubated at an average density of 10^6 parasites/mL in sterile 96-well plates with various concentrations of compound dissolved in DMSO (final concentration less than 0.5% v/v), in duplicate. Appropriate controls treated with DMSO, Miltefosine, Amphotericin B, Fexinidazole, and Fexinidazole sulfone (reference drugs purchased from Sigma-Aldrich, Saint-Louis, Missouri, USA) were added to each set of experiments. After a 72 h incubation period at 27 °C, parasitic metabolic activity was determined. Each plate-well was then microscope-analyzed to detect any precipitate formation. 20 µL of MTT (3-(4,5-dimethylthiazol-2-yl)-2,5-diphenyltetrazolium bromide) (Sigma-Aldrich, Saint-Louis, Missouri, USA) solution (5 mg/mL in PBS) were added to each well and incubated for 4 h at 27 °C. The enzyme reaction was then stopped by addition of 100 µL of 50% isopropanol–10% sodium dodecyl sulfate. Plates were shaken vigorously at 300 rpm for 10 min. The absorbance was measured at 570 nm in a BIO-TEK Elx808 (Biotek, Colmar, France) absorbance microplate reader. […] EC50 values were calculated by non-linear regression analysis processed dose-response curves, using TableCurve 2D V5.0 software (Systat Software Inc. (Palo Alto, CA, USA)). EC50 values represent the mean value calculated from at least three separate experiments.

[2] = Redox potential of the nitro group by cyclic voltammetry; format: physicochemical; settings: cyclic voltammetry in DMSO, corrected versus NHE
Experimental: Voltammetric measurements were carried out with a potentiostat Autolab PGSTAT100 (ECO Chemie, Utrecht, The Netherlands) controlled by GPES 4.09 software (ECO Chemie, Utrecht, The Netherlands). Experiments were performed at room temperature in a homemade airtight three–electrode cell connected to a vacuum/argon line. The reference electrode consisted of a saturated calomel electrode (SCE) separated from the solution by a bridge compartment. The counter electrode was a platinum wire of 1 cm^2 apparent surface. The working electrode was a GC microdisk (1.0 mm in diameter–Bio-logic SAS). The supporting electrolyte (nBu4N)[PF6] (Fluka, 99% puriss electrochemical grade) and the solvent DMSO (Sigma-Aldrich puriss p.a. dried <0.02% water) were used as received and simply degassed under argon. The solutions used during electrochemical analyses were typically 10^−3 M in compound and 0.1 M in supporting electrolyte. Before each measurement, the solutions were degassed by bubbling Ar, and the working electrode was polished with a polishing machine (Presi P230, Eybens, France). Under the experimental conditions adopted in this work, the half-wave potential (E1/2) of the ferrocene Fc+/Fc couple in DMSO was E1/2 = 0.45 V vs. SCE. Experimental peak potentials were measured versus SCE and converted to NHE by adding 0.241 V.

[3] = test system: L. infantum axenic amastigotes; assay: Antileishmanial activity on L. infantum axenic amastigotes (luciferase assay); format: cell-based; settings: Leishmania infantum, 48 h, read-out: EC50 L. infantum Axenic Ama.
Experimental: L. infantum promastigotes were harvested in logarithmic phase of growth by centrifugation at 900× g for 10 min. The supernatant was removed carefully and was replaced by the same volume of RPMI 1640 complete medium at pH 5.4 and incubated for 24 h at 24 °C. The acidified promastigotes were then incubated for 24 h at 37 °C in a ventilated flask to transform them into axenic amastigotes. The amastigote stage was checked both by electron microscopy (short flagellum with small bulbous tip extending beyond a spherical cell body) and RT-PCR to confirm the overexpression of ATG8 and amastin genes in amastigotes, relative to promastigotes. The effects of the tested compounds on the growth of L. infantum axenic amastigotes were assessed as follows. L. infantum amastigotes were incubated at a density of 2 × 10^6 parasites/mL in sterile 96-well plates with various concentrations of compounds dissolved in DMSO (final concentration less than 0.5% v/v), in duplicate. Appropriate controls treated with DMSO, amphotericin B, miltefosine, fexinidazole and fexinidazole sulfone were added to each set of experiments. After a 48 h incubation period at 37 °C, each plate-well was then microscopically examined to detect any precipitate formation.
(§1) • Luciferase activity and determination of EC50 were performed as above.

[4] = test system: L. infantum intracellular amastigotes; assay: Antileishmanial activity on L. infantum intracellular (intra-THP1 macrophage) amastigotes; format: cell-based; settings: Leishmania infantum, THP-1; intramacrophage (THP1) amastigotes, 120 h; read-out: EC50 L. infantum Intra. Ama.
Experimental: The undifferentiated THP1 human monocyte cells (acute monocytic leukemia cell line purchased from ATCC, ref TIB-202) were grown in RPMI 1640 medium (Life Technologies, Saint-Aubin, France) supplemented with 10% FCS (Life Technologies, Saint-Aubin, France), 100 U/mL penicillin, 100 µg/mL streptomycin and 2 mM L-glutamine at 37 °C, 5% CO2. The culture was maintained between 3.10^5 and 1.10^6 cells/mL. The in vitro evaluation of the antileishmanial activity on intracellular amastigote forms of the tested compound was assessed as below.
Briefly, 200 μL of THP-1 cells with Phorbol 12-Myristate 13-Acetate (final concentration 50 ng/mL) were seeded in 96-well plates at an average density of 0.77 × 10^5 cells/mL and incubated for 96 h at 37 °C, 5% CO2. Promastigotes were centrifuged at 3000 rpm for 10 min and the supernatant replaced by the same volume of complete RPMI pH 5.4 and incubated for 24 h at 27 °C. Differentiated THP-1 cells were then infected by acidified promastigotes with an infection ratio of twenty parasites for one macrophage and incubated for 24 h at 37 °C, 5% CO2.
as §1

[5] = Cytotoxicity evaluation on HepG2 cell line (MTT); format: cell-based; settings: human, HepG2 cells
Experimental: The tested molecules’ cytotoxicity was assessed according to the method of Mosmann with slight modifications. […] Triplicate assays were performed for each sample. Each plate-well was then microscope-examined to detect possible precipitate formation before the medium was aspirated from the wells. 100 µL of MTT (3-(4,5-dimethyl-2-thiazolyl)-2,5-diphenyl-2H-tetrazolium bromide) solution (0.5 mg/mL in medium without FCS) were then added to each well. […] Plates were shaken vigorously (700 rpm) for 10 min. The absorbance was measured at 570 nm with 630 nm as reference wavelength using a BIO-TEK ELx808 Absorbance Microplate Reader. DMSO was used as blank and doxorubicin (purchased from Sigma Aldrich) as positive control. Cell viability was calculated as percentage of control (cells incubated without compound). […] (Palo Alto, CA, USA)). CC50 values represent the mean value calculated from three separate experiments.

Row | SMILES | EC50 [1] [nM] | E0 (redox potential of the nitro group) [2] [V] | EC50 [3] [nM] | EC50 [4] [nM] | CC50 at 72 h [5] [nM]
1 | O=[N+]([O-])c1c(CS(=O)(=O)c2ccc(F)cc2)nc2c(Sc3ccc(Cl)cc3)cc(Cl)cn12 [Compound 3c, 6-Chloro-8-[(4-Chlorophenyl)thio]-2-[(4-Fluorophenylsulfonyl)methyl]-3-Nitroimidazo[1,2-a]pyridine] | 900 ± 100 | −0.61 | 200 ± 100 | 1600 ± 100 | > 15600
2 | O=[N+]([O-])c1c(CS(=O)(=O)c2ccc(OC(F)(F)F)cc2)nc2c(Sc3ccc(Cl)cc3)cc(Cl)cn12 [Compound 3e, 6-Chloro-8-[(4-Chlorophenyl)thio]-3-Nitro-2-[(4-Trifluoromethoxyphenylsulfonyl)methyl]imidazo[1,2-a]pyridine] | 2600 ± 200 | −0.66 | 800 ± 200 | 1600 ± 100 | > 12500
3 | O=[N+]([O-])c1c(CS(=O)(=O)c2ccc(C(F)(F)F)cc2)nc2c(Sc3ccc(Cl)cc3)cc(Cl)cn12 [Compound 3d, 6-Chloro-8-[(4-Chlorophenyl)thio]-3-Nitro-2-[(4-Trifluoromethylphenylsulfonyl)methyl]imidazo[1,2-a]pyridine] | 1800 ± 200 | −0.56 | 800 ± 100 | 4400 ± 200 | > 3900
4 | O=[N+]([O-])c1c(CS(=O)(=O)CCC(F)(F)F)nc2c(S(=O)(=O)c3ccc(Cl)cc3)cc(Cl)cn12 [Compound 6b, 6-Chloro-8-[(4-Chlorophenyl)sulfonyl]-3-Nitro-2-[(3,3,3-Trifluoropropylsulfonyl)methyl] imidazo[1,2-a]pyridine] | 1300 ± 200 |  | 2300 ± 300 | 8300 ± 800 | > 10000
5 | O=[N+]([O-])c1c(CS(=O)(=O)CCC(F)(F)F)nc2c(Sc3ccc(Cl)cc3)cc(Cl)cn12 [Compound 3i, 6-Chloro-8-[(4-Chlorophenyl)thio]-3-Nitro-2-[(3,3,3-Trifluoropropylsulfonyl)methyl]imidazo[1,2-a]pyridine] | 1400 ± 200 | −0.64 | 800 ± 300 | 1200 ± 100 | > 6200
6 | COc1ccc(S(=O)(=O)Cc2nc3c(Br)cc(Cl)cn3c2[N+](=O)[O-])cc1 [Compound 2g, 8-Bromo-6-Chloro-2-[(4-Methoxyphenylsulfonyl)methyl]-3-Nitroimidazo[1,2-a]pyridine] | 2800 ± 900 | −0.64 | 2300 ± 300 | 2200 ± 100 | 3900 ± 1300
7 | O=[N+]([O-])c1c(CS(=O)(=O)c2ccc(OC(F)(F)F)cc2)nc2c(Br)cc(Cl)cn12 [Compound 2f, 8-Bromo-6-Chloro-3-Nitro-2-[(4-Trifluoromethoxyphenylsulfonyl)methyl]imidazo[1,2-a] pyridine] | 4400 ± 100 | −0.62 | 2700 ± 400 | 4200 ± 300 | > 25000
8 | O=[N+]([O-])c1c(CS(=O)(=O)c2ccc(Cl)cc2)nc2c(Sc3ccc(Cl)cc3)cc(Cl)cn12 [Compound 3b, 6-Chloro-2-[(4-Chlorophenylsulfonyl)methyl]-8-[(4-Chlorophenyl)thio]-3-Nitroimidazo[1,2-a]pyridine] | 1400 ± 100 | −0.68 | 1000 ± 100 | 700 ± 100 | 8900 ± 1300
9 | O=[N+]([O-])c1c(CS(=O)(=O)c2ccccc2)nc2c(Sc3ccc(Cl)cc3)cc(Cl)cn12 [Hit B, reference compound] | 1000 ± 300 | −0.63 | 1700 ± 300 | 3200 ± 100 | > 100000
10 | O=[N+]([O-])c1c(CS(=O)(=O)c2ccc(O)cc2)nc2c(Sc3ccc(Cl)cc3)cc(Cl)cn12 [Compound 3a, 4-{[(6-Chloro-8-[(4-Chlorophenyl)thio]-3-Nitroimidazo[1,2-a]pyridin-2-yl)methyl]sulfonyl}phenol] | 800 ± 200 |  | 1400 ± 300 | 2700 ± 500 | 22300 ± 2500
11 | COc1ccc(S(=O)(=O)Cc2nc3c(Sc4ccc(Cl)cc4)cc(Cl)cn3c2[N+](=O)[O-])cc1 [Compound 3f, 6-Chloro-8-[(4-Chlorophenyl)thio]-2-[(4-Methoxyphenylsulfonyl)methyl]-3-Nitroimidazo[1,2-a]pyridine] | 1200 ± 100 | −0.66 | 500 ± 100 | 900 ± 100 | > 3900
12 | CSc1ccc(OCc2ncc([N+](=O)[O-])n2C)cc1 [Fexinidazole, reference compound] | 1200 ± 200 | −0.83 | 7800 ± 2300 | 15900 ± 3200 | > 100000
13 | O=[N+]([O-])c1c(CS(=O)(=O)CCC(F)(F)F)nc2c(-c3ccncc3)cc(Cl)cn12 [Compound 7, 6-Chloro-3-Nitro-8-(Pyridin-4-yl)-2-[(3,3,3-Trifluoropropylsulfonyl)methyl]imidazo[1,2-a]pyridine] | 3100 ± 600 | −0.61 | 14000 ± 900 | 3700 ± 400 | > 100000
14 | O=[N+]([O-])c1c(CS(=O)(=O)C2CC2)nc2c(Sc3ccc(Cl)cc3)cc(Cl)cn12 [Compound 3h, 6-Chloro-8-[(4-Chlorophenyl)thio]-2-[(cyclopropylsulfonyl)methyl]-3-Nitroimidazo[1,2-a]pyridine] | 2200 ± 300 | −0.65 | 2400 ± 100 | 3700 ± 200 | 22300 ± 2500
